Measured values as given in patent US20250171511A1, “ANTIVIRAL PEPTIDES AND METHODS OF USE THEREOF” (Versitech Limited, priority 2021, published 2025).
Where a SMILES comes first, the peptide text is derived from it.

Key:
[1] = Solubility of peptide in water; format: physicochemical
Experimental: H23, H26, H30, 2H30, and 4H30 shown in Table 1 were synthesized by ChinaPeptide (Shanghai, China). All peptides were dissolved in water. The solubility of peptide in water is greater than 5 mg ml^−1. The purity of all peptides was >80%. The purity and mass of each peptide were verified by HPLC and mass spectrometry.

VeroE6 cells = test: Endosomal acidification assay; format: cell-based
Experimental: Endosomal acidification was detected with a pH-sensitive dye (pHrodo green dextran, Invitrogen, Cat^# P35365) according to the manufacturer's instructions as previously described but with slight modification (H. Zhao, et al., Nat Commun, 9 (2018) 2358). First, VeroE6 cells were treated with DMEM, 4H30 (25.0 μg ml^−1), or bafilomycin A1 (50.0 nM) at 4° C. for 15 min. Second, VeroE6 cells were added with 100 μg ml^−1 of pH-sensitive dye and DAPI and then incubated at 4° C. for 15 min. Before taking images, cells were further incubated at 37° C. for 15 min and then cells were washed twice with PBS. Finally, PBS was added to cells and images were taken immediately with confocal microscope (Carl Zeiss LSM 800, Germany).

[2] = test system: spike-ACE2 mediated fusion; format: cell-based; settings: endocytosis pathway
[3] = molecular target: SARS-CoV-2 spike (SARS-CoV-2), P0DTC2; test: cell-based or functional assay

| Molecule | solubility [1] [µg/mL] | other results |
| --- | --- | --- |
| CC[C@H](C)[C@H](NC(=O)[C@H](CCC(N)=O)NC(=O)[C@H](CCCCN)NC(=O)[C@H](Cc1ccc(O)cc1)NC(=O)[C@H](CCCNC(=N)N)NC(=O)[C@H](CCCNC(=N)N)NC(=O)[C@@H]1CCCN1C(=O)[C@H](CS)NC(=O)[C@H](Cc1ccccc1)NC(=O)[C@@H](NC(=O)[C@@H]1CCCN1C(=O)[C@H](Cc1c[nH]cn1)NC(=O)[C@@H](N)CS)C(C)C)C(=O)NCC(=O)N[C@H](C(=O)N[C@@H](CS)C(=O)NCC(=O)N[C@@H](CC(C)C)C(=O)N1CCC[C@H]1C(=O)NCC(=O)N[C@H](C(=O)N[C@@H](CCCCN)C(=O)N[C@@H](CS)C(=O)O)[C@@H](C)O)[C@@H](C)O [Peptide H23] (H-CHPVFCPRRYKQIGTCGLPGTKC-OH; N-terminus and C-terminus assumed) | > 5000 |  |
| CC[C@H](C)[C@H](NC(=O)[C@H](CCC(N)=O)NC(=O)[C@H](CCCCN)NC(=O)[C@H](Cc1ccc(O)cc1)NC(=O)[C@H](CCCNC(=N)N)NC(=O)[C@H](CCCNC(=N)N)NC(=O)[C@@H]1CCCN1C(=O)[C@H](CS)NC(=O)[C@H](Cc1ccccc1)NC(=O)[C@@H](NC(=O)[C@@H]1CCCN1C(=O)[C@H](Cc1c[nH]cn1)NC(=O)[C@@H](N)CS)C(C)C)C(=O)NCC(=O)N[C@H](C(=O)N[C@@H](CS)C(=O)NCC(=O)N[C@@H](CC(C)C)C(=O)N1CCC[C@H]1C(=O)NCC(=O)N[C@H](C(=O)N[C@@H](CCCCN)C(=O)N[C@@H](CS)C(=O)N[C@@H](CS)C(=O)N[C@@H](CCCCN)C(=O)N[C@@H](CCCCN)C(=O)O)[C@@H](C)O)[C@@H](C)O [Peptide H26] (H-CHPVFCPRRYKQIGTCGLPGTKCCKK-OH; N-terminus and C-terminus assumed) | > 5000 |  |
| CC[C@H](C)[C@H](NC(=O)[C@H](C)NC(=O)CN)C(=O)N[C@@H](CS)C(=O)N[C@@H](Cc1c[nH]cn1)C(=O)N1CCC[C@H]1C(=O)N[C@H](C(=O)N[C@@H](Cc1ccccc1)C(=O)N[C@@H](CS)C(=O)N1CCC[C@H]1C(=O)N[C@@H](CCCNC(=N)N)C(=O)N[C@@H](CCCNC(=N)N)C(=O)N[C@@H](Cc1ccc(O)cc1)C(=O)N[C@@H](CCCCN)C(=O)N[C@@H](CCC(N)=O)C(=O)N[C@H](C(=O)NCC(=O)N[C@H](C(=O)N[C@@H](CS)C(=O)NCC(=O)N[C@@H](CC(C)C)C(=O)N1CCC[C@H]1C(=O)NCC(=O)N[C@H](C(=O)N[C@@H](CCCCN)C(=O)N[C@@H](CS)C(=O)N[C@@H](CS)C(=O)N[C@@H](CCCCN)C(=O)N[C@@H](CCCCN)C(=O)N1CCC[C@H]1C(=O)O)[C@@H](C)O)[C@@H](C)O)[C@@H](C)CC)C(C)C [Peptide H30] (H-GAICHPVFCPRRYKQIGTCGLPGTKCCKKP-OH; N-terminus and C-terminus assumed) | > 5000 |  |
| CO/C1=C\C(C)=C\[C@@H](C)[C@@H](O)[C@@H](C)C/C(C)=C/C=C/[C@H](OC)[C@@H]([C@@H](C)[C@@H](O)[C@H](C)[C@@]2(O)C[C@@H](O)[C@H](C)[C@@H](C(C)C)O2)OC1=O [bafilomycin Al, bafilomycin A1, reference compound] |  | endosomal acidification (VeroE6 cells): inhibiting endosomal acidification; spike-ACE2 mediated cell fusion [2]: inhibiting endosomal acidification and cell fusion |
| GAICHPVFCPRRYKQIGTCGLPGTKCCKKP (modifications not checked) [four branched H30 (4H30)] |  | IC50 of inhibition of SARS-CoV-2 infection, plaque reduction assay in PBS [3]: 0.59 µg/mL |
